“And” between values parts separate entries of the source, which are not always exact repeats. Equal entries are not always repeated. Where two headings read alike, the source gives them in different places.
Legend:
FA19 mtrD::kan (KH14) = assay: MIC of steroidal hormones on GC agar, FA19 mtrD::kan (KH14); format: cell-based, Neisseria gonorrhoeae
Procedure: To determine the minimal inhibitory concentrations (MICs) by the steroidal hormones and their effect on antimicrobial susceptibility, 5 x 10^5 CFU and 1:5 serial dilutions of gonococcal strains were spotted on GC agar plates containing different concentrations of antibiotics and/or hormones as indicated. Antimicrobial susceptibility was assessed after 24 h incubation.
Table S1. Steroidal hormones are substrates of the MtrCDE efflux pump
Progesterone Testosterone
*Minimal inhibition concentration is defined by the lowest concentration at which visible growth is […]

N. gonorrhoeae = test system: N. gonorrhoeae; set-up: method as in PMID 816438; settings: cited from earlier work
MtrR R176E = target: T1, MtrR R176E (Neisseria gonorrhoeae, UniProt P39897, R176E); assay: biochemical; format: binding
T1 construct: Hexa-histidine tag with TEV protease cleavage site (N, cleaved yes); made in house; host or cells: E. coli Rosetta Gami B(DE3) pLysS
T1 sequence (P39897 whole entry R176E): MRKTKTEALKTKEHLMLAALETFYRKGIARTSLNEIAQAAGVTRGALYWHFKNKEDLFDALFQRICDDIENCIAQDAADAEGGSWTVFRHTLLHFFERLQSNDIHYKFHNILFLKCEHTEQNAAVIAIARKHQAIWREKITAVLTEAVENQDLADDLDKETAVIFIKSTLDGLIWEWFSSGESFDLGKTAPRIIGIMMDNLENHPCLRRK

[1] = target: T2, MtrR binding to mtrCDE operator (21mer) (Neisseria gonorrhoeae, UniProt P39897); assay: Fluorescence polarization based DNA binding assay, mtrCDE operator; settings: mtrCDE 21mer + 125 µM steroid
T2 construct: Hexa-histidine tag with TEV protease cleavage site (N, cleaved yes); made in house; host or cells: E. coli Rosetta Gami B(DE3) pLysS
T2 sequence (P39897 whole entry): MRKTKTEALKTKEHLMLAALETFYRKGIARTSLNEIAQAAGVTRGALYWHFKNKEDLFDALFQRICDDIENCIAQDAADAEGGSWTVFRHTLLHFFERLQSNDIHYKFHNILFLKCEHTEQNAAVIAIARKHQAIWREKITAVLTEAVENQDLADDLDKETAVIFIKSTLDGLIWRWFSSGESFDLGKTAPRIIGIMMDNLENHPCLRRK
Procedure: Fluorescence polarization based-DNA binding data were collected using a Panvera Beacon 2000 fluorescence polarization system (Invitrogen) and analyzed with Prism (Graphpad Software 9, 10). Purified MtrR was buffer exchanged into “DNA” binding buffer (150 mM NaCl, 20 mM Tris-HCl pH 7.5, 2.5% glycerol, 1 mM TCEP). […] The reported oligoduplexes containing the rpoH and mtrCDE binding site differ in lengths, 27mer and 21mer, respectively[17],[21]. […] BSA and dI-dC are included as carriers and to control for nonspecific DNA binding. Samples were excited at 490 nm and polarized emissions measured at 530 nm. Controls were run with no protein (DNA ± methanol, hormonal steroids) to ensure that millipolarization values were not affected by experimental conditions alone. The binding affinity of protein for DNA was determined using the following equation: P = Pf + (Pb – Pf) [M] / (Kd + [M]) where P is the measured polarization, Pf is the polarization of free DNA, Pb is the polarization of the completely bound DNA, Kd is the equilibrium dissociation constant, and M is the concentration of protein. Pb and Kd were determined by nonlinear least-squares analysis. At least three independent experimental measurements were averaged for each reported binding constant.

rpoH-lacZ expression = format: cell-based, Neisseria gonorrhoeae
[2] = rpoH-lacZ, ΔmtrR + mtrR D171A in trans, 6.25 µM hormone, single replicate
[3] = rpoH-lacZ, ΔmtrR + mtrR D171A in trans, 12.5 µM hormone, single replicate
[4] = rpoH-lacZ, ΔmtrR + mtrR D171A in trans, 25 µM hormone, single replicate
[5] = rpoH-lacZ, ΔmtrR + mtrR D171A in trans, 50 µM hormone, single replicate

In the case of `C[C@]12CC[C@@H]3c4ccc(O)cc4CC[C@H]3[C@@H]1CC[C@@H]2O` [β-Estradiol, β-estradiol], the MIC (FA19 mtrD::kan (KH14); Neisseria gonorrhoeae) is given as 320 µg/mL and 1180 µM, the “effect of mtrD deletion on MIC” value (FA19 mtrD::kan (KH14); vs FA19) is given as “lowered” and the “growth inhibition of N. gonorrhoeae” value (N. gonorrhoeae) is given as “arrest N. gonorrhoeae growth”. The Kd (MtrR R176E) was 0.72 ± 0.15 µM, the “fluorescence polarization, MtrR titration” value (“fluorescence polarization” below) ([1]; MtrR WT dimer 0.00 nM) was 0.00 mP and the “fluorescence polarization” value ([1]; MtrR WT dimer 6.35 nM) was 4.51 mP and 6.27 mP and 3.99 mP. The “fluorescence polarization” value ([1]; MtrR WT dimer 11.32 nM) was 5.41 mP and 7.10 mP and 5.13 mP, the “fluorescence polarization” value ([1]; MtrR WT dimer 16.21 nM) was 7.14 mP and 8.80 mP and 6.33 mP and the “fluorescence polarization” value ([1]; MtrR WT dimer 35.50 nM) was 8.94 mP and 8.19 mP. The “fluorescence polarization” value ([1]; MtrR WT dimer 73.35 nM) was 10.97 mP and 13.97 mP and 11.09 mP, the “fluorescence polarization” value ([1]; MtrR WT dimer 110.67 nM) was 13.61 mP and 15.83 mP and 13.69 mP and the “fluorescence polarization” value ([1]; MtrR WT dimer 147.65 nM) was 16.87 mP and 18.60 mP and 16.09 mP. For the same compound, the “fluorescence polarization” value ([1]; MtrR WT dimer 220.59 nM) was 20.11 mP and 24.13 mP and 19.63 mP, the “fluorescence polarization” value ([1]; MtrR WT dimer 292.55 nM) was 24.17 mP and 25.77 mP and 23.16 mP and the “fluorescence polarization” value ([1]; MtrR WT dimer 363.86 nM) was 26.44 mP and 29.33 mP and 25.99 mP. For the same compound, the “fluorescence polarization” value ([1]; MtrR WT dimer 434.54 nM) was 30.01 mP and 30.57 mP and 27.99 mP, the “fluorescence polarization” value ([1]; MtrR WT dimer 504.61 nM) was 31.07 mP and 33.77 mP and 30.59 mP and the “fluorescence polarization” value ([1]; MtrR WT dimer 574.07 nM) was 34.21 mP and 36.80 mP and 32.93 mP. For the same compound, the “fluorescence polarization” value ([1]; MtrR WT dimer 711.46 nM) was 37.61 mP and 38.13 mP and 35.23 mP, the “fluorescence polarization” value ([1]; MtrR WT dimer 848.00 nM) was 39.37 mP and 41.63 mP and 41.06 mP and the “Miller units, Mean” value (rpoH-lacZ expression; Mean of plate rows 5-8, plate columns 1-6 (first strain), 6.25 µM hormone) was 42 Miller units. The “Miller units, Mean” value (rpoH-lacZ expression; Mean of plate rows 5-8, plate columns 1-6 (first strain), 12.5 µM hormone) was 61 Miller units, the “Miller units, Mean” value (rpoH-lacZ expression; Mean of plate rows 5-8, plate columns 1-6 (first strain), 25 µM hormone) was 70 Miller units and the “Miller units, Mean” value (rpoH-lacZ expression; Mean of plate rows 5-8, plate columns 1-6 (first strain), 50 µM hormone) was 78 Miller units. For the same compound, the “Miller units, Mean” value (rpoH-lacZ expression; Mean of plate rows 5-8, plate columns 7-12 (second strain), 6.25 µM hormone) was 73.6 Miller units, the “Miller units, Mean” value (rpoH-lacZ expression; Mean of plate rows 5-8, plate columns 7-12 (second strain), 12.5 µM hormone) was 75.3 Miller units and the “Miller units, Mean” value (rpoH-lacZ expression; Mean of plate rows 5-8, plate columns 7-12 (second strain), 25 µM hormone) was 76.5 Miller units. The “Miller units, Mean” value (rpoH-lacZ expression; Mean of plate rows 5-8, plate columns 7-12 (second strain), 50 µM hormone) was 79.6 Miller units, the “induction of rpoH expression” value (rpoH-lacZ expression; complemented (MtrR+) strains, increasing hormone) was “could be induced” and the “induction of rpoH expression” value (rpoH-lacZ expression; loss of MtrR or MtrR-D171A strain) was “abrogated”. For the same compound, the Miller units (rpoH-lacZ expression; [2]) was 73 Miller units, the “β-galactosidase activity (Miller units)” value (rpoH-lacZ expression; [2]) was 64 Miller units and 67 Miller units and 90 Miller units and the Miller units (rpoH-lacZ expression; [3]) was 67 Miller units. For the same compound, the “β-galactosidase activity (Miller units)” value (rpoH-lacZ expression; [3]) was 68 Miller units and 72 Miller units and 94 Miller units, the Miller units (rpoH-lacZ expression; [4]) was 76 Miller units and the “β-galactosidase activity (Miller units)” value (rpoH-lacZ expression; [4]) was 84 Miller units and 81 Miller units and 65 Miller units. For the same compound, the Miller units (rpoH-lacZ expression; [5]) was 82 Miller units, the “β-galactosidase activity (Miller units)” value (rpoH-lacZ expression; [5]) was 80 Miller units and 76 Miller units and the “β-galactosidase activity (Miller units)” value (rpoH-lacZ expression; rpoH-lacZ, ΔmtrR + mtrR WT in trans, 6.25 µM hormone, single replicate) was 29 Miller units and 43 Miller units and 45 Miller units and 49 Miller units. The “β-galactosidase activity (Miller units)” value (rpoH-lacZ expression; rpoH-lacZ, ΔmtrR + mtrR WT in trans, 12.5 µM hormone, single replicate) was 60 Miller units and 54 Miller units and 64 Miller units and 67 Miller units, the “β-galactosidase activity (Miller units)” value (rpoH-lacZ expression; rpoH-lacZ, ΔmtrR + mtrR WT in trans, 25 µM hormone, single replicate) was 91 Miller units and 57 Miller units and 68 Miller units and 64 Miller units and the “β-galactosidase activity (Miller units)” value (rpoH-lacZ expression; rpoH-lacZ, ΔmtrR + mtrR WT in trans, 50 µM hormone, single replicate) was 89 Miller units and 63 Miller units and 78 Miller units and 82 Miller units. The “β-galactosidase activity (Miller units)” value (rpoH-lacZ expression; rpoH-lacZ, ΔmtrR strain, 6.25 µM hormone, single replicate) was 253 Miller units and 160 Miller units and 91 Miller units, the “β-galactosidase activity (Miller units)” value (rpoH-lacZ expression; rpoH-lacZ, ΔmtrR strain, 12.5 µM hormone, single replicate) was 161 Miller units and 99 Miller units and the “β-galactosidase activity (Miller units)” value (rpoH-lacZ expression; rpoH-lacZ, ΔmtrR strain, 25 µM hormone, single replicate) was 232 Miller units and 156 Miller units and 133 Miller units. For the same compound, the “β-galactosidase activity (Miller units)” value (rpoH-lacZ expression; rpoH-lacZ, ΔmtrR strain, 50 µM hormone, single replicate) was 195 Miller units and 151 Miller units and 114 Miller units, the Miller units (rpoH-lacZ expression; rpoH-lacZ, ΔmtrR, 6.25 µM hormone, single replicate) was 150 Miller units and the Miller units (rpoH-lacZ expression; rpoH-lacZ, ΔmtrR, 12.5 µM hormone, single replicate) was 165 Miller units. For the same compound, the Miller units (rpoH-lacZ expression; rpoH-lacZ, ΔmtrR, 25 µM hormone, single replicate) was 177 Miller units, the Miller units (rpoH-lacZ expression; rpoH-lacZ, ΔmtrR, 50 µM hormone, single replicate) was 178 Miller units and the Miller units (rpoH-lacZ expression; single well, plate rows 5-8, plate columns 1-6 (first strain), 6.25 µM hormone) was 29 Miller units and 43 Miller units and 45 Miller units and 49 Miller units. The Miller units (rpoH-lacZ expression; single well, plate rows 5-8, plate columns 1-6 (first strain), 12.5 µM hormone) was 60 Miller units and 54 Miller units and 64 Miller units and 67 Miller units, the Miller units (rpoH-lacZ expression; single well, plate rows 5-8, plate columns 1-6 (first strain), 25 µM hormone) was 91 Miller units and 57 Miller units and 68 Miller units and 64 Miller units and the Miller units (rpoH-lacZ expression; single well, plate rows 5-8, plate columns 1-6 (first strain), 50 µM hormone) was 89 Miller units and 63 Miller units and 78 Miller units and 82 Miller units. For the same compound, the Miller units (rpoH-lacZ expression; single well, plate rows 5-8, plate columns 7-12 (second strain), 6.25 µM hormone) was 64 Miller units and 67 Miller units and 73 Miller units and 90 Miller units, the Miller units (rpoH-lacZ expression; single well, plate rows 5-8, plate columns 7-12 (second strain), 12.5 µM hormone) was 68 Miller units and 72 Miller units and 67 Miller units and 94 Miller units and the Miller units (rpoH-lacZ expression; single well, plate rows 5-8, plate columns 7-12 (second strain), 25 µM hormone) was 84 Miller units and 81 Miller units and 76 Miller units and 65 Miller units. The Miller units (rpoH-lacZ expression; single well, plate rows 5-8, plate columns 7-12 (second strain), 50 µM hormone) was 80 Miller units and 82 Miller units and 76 Miller units, the “β-galactosidase activity, rpoH-lacZ, Mean” value (rpoH-lacZ expression; strain WT (FA19/pLES94-rpoH), hormone 6.25 µM) was 83 Miller units and the “β-galactosidase activity, rpoH-lacZ, Mean” value (rpoH-lacZ expression; strain WT (FA19/pLES94-rpoH), hormone 12.5 µM) was 113 Miller units. The “β-galactosidase activity, rpoH-lacZ, Mean” value (rpoH-lacZ expression; strain WT (FA19/pLES94-rpoH), hormone 25 µM) was 148 Miller units, the “β-galactosidase activity, rpoH-lacZ, Mean” value (rpoH-lacZ expression; strain WT (FA19/pLES94-rpoH), hormone 50 µM) was 162 Miller units and the “activation of rpoH” value (rpoH-lacZ expression; strain producing MtrR R176E) was “clearly weaker activation”. The “β-galactosidase activity, rpoH-lacZ, Mean” value (rpoH-lacZ expression; strain ΔmtrR (FA19 ∆mtrR/pLES94-rpoH), hormone 6.25 µM) was 163 Miller units, the “β-galactosidase activity, rpoH-lacZ, Mean” value (rpoH-lacZ expression; strain ΔmtrR (FA19 ∆mtrR/pLES94-rpoH), hormone 12.5 µM) was 152 Miller units and the “β-galactosidase activity, rpoH-lacZ, Mean” value (rpoH-lacZ expression; strain ΔmtrR (FA19 ∆mtrR/pLES94-rpoH), hormone 25 µM) was 175 Miller units. For the same compound, the “β-galactosidase activity, rpoH-lacZ, Mean” value (rpoH-lacZ expression; strain ΔmtrR (FA19 ∆mtrR/pLES94-rpoH), hormone 50 µM) was 160 Miller units, the “β-galactosidase activity, rpoH-lacZ, Mean” value (rpoH-lacZ expression; strain ΔmtrR + mtrR D171A (pGCC3-mtrR D171A), hormone 6.25 µM) was 74 Miller units and the “β-galactosidase activity, rpoH-lacZ, Mean” value (rpoH-lacZ expression; strain ΔmtrR + mtrR D171A (pGCC3-mtrR D171A), hormone 12.5 µM) was 75 Miller units. The “β-galactosidase activity, rpoH-lacZ, Mean” value (rpoH-lacZ expression; strain ΔmtrR + mtrR D171A (pGCC3-mtrR D171A), hormone 25 µM) was 76 Miller units, the “β-galactosidase activity, rpoH-lacZ, Mean” value (rpoH-lacZ expression; strain ΔmtrR + mtrR D171A (pGCC3-mtrR D171A), hormone 50 µM) was 80 Miller units and the “β-galactosidase activity, rpoH-lacZ, Mean” value (rpoH-lacZ expression; strain ΔmtrR + mtrR WT (pGCC3-mtrR), hormone 6.25 µM) was 42 Miller units. The “β-galactosidase activity, rpoH-lacZ, Mean” value (rpoH-lacZ expression; strain ΔmtrR + mtrR WT (pGCC3-mtrR), hormone 12.5 µM) was 61 Miller units, the “β-galactosidase activity, rpoH-lacZ, Mean” value (rpoH-lacZ expression; strain ΔmtrR + mtrR WT (pGCC3-mtrR), hormone 25 µM) was 70 Miller units and the “β-galactosidase activity, rpoH-lacZ, Mean” value (rpoH-lacZ expression; strain ΔmtrR + mtrR WT (pGCC3-mtrR), hormone 50 µM) was 78 Miller units.

From PMC10850145, “Hormonal steroids induce multidrug resistance and stress response genes in Neisseria gonorrhoeae by binding to MtrR” (Nature Communications, 2024)
